Columns and labels:
[1] = Equilibrium solubility (heated at 80° C. for 15 minutes, cooled to room temperature, observed up to 4 days); format: physicochemical; settings: for equilibrium solubility: deionized water, 80° C. for 15 minutes, cooled to room temperature, observed up to 4 days
Text: (§1) The composition can optionally be expressed in terms of the concentration of one or more steviol glycoside(s). Beneficially, it has been founds that compound(s) 1, 2, 3, and/or 4, can improve solubility of steviol glycosides in an aqueous solution, and therefore compositions can be prepared having a greater concentration of steviol glycosides in solution. As used herein “instantaneous solubility” refers to the solubility of a steviol glycoside, or mixture of steviol glycosides, that are vigorously mixed with deionized water at room temperature (25° C.). As used herein “equilibrium solubility” refers to the solubility of a steviol glycoside, or mixture of steviol glycosides, that are vigorously mixed with deionized water at 80° C. for 15 minutes, cooled to room temperature (25° C.), and then observed up to 4 days. Clear solutions without precipitates are considered soluble. Unless indicated otherwise herein, the term “solubility” refers to “equilibrium solubility.”
(§2) Instantaneous solubility is determined by mixing steviol glycoisde with deionized water vigorously for 10 minutes at room temperature. Equilibrium solubility is determined by heating deionized water with steviol glycoside at 80° C. for 15 minutes and cooling down to room temperature for observation up to 4 days. Clear solutions without precipitates are considered soluble.

[2] = taste, versus sucrose/sugar; cited from earlier work
[3] = Instantaneous solubility in deionized water at room temperature; format: physicochemical; settings: for instantaneous solubility: vigorously mixed with deionized water for 10 minutes at room temperature, clear solution without precipitates
Text: as §1, §2

For `C=C1C[C@@]23CC[C@H]4[C@@](C)(CCC[C@@]4(C)C(=O)O[C@@H]4O[C@H](CO)[C@@H](O)[C@H](O)[C@H]4O[C@@H]4O[C@H](CO)[C@@H](O)[C@H](O)[C@H]4O)[C@@H]2CC[C@]1(O[C@@H]1O[C@H](CO)[C@@H](O)[C@H](O[C@@H]2O[C@H](CO)[C@@H](O)[C@H](O)[C@H]2O)[C@H]1O[C@@H]1O[C@H](CO)[C@@H](O)[C@H](O)[C@H]1O)C3` [RebD, rebaudioside D], the “equilibrium solubility at 0.08%” value ([1]; RebD 0.08% in deionized water) is given as “soluble”, the equilibrium solubility [1] is given as 0.08% and the “times sweeter than sucrose” value [2] is given as 200-220 times. For the same compound, the instantaneous solubility [3] was under 0.08% and the instantaneous solubility ([3]; listed as rebaudioside D) was “less than 0.08%”.
For `C=C1C[C@@]23CC[C@H]4[C@@](C)(CCC[C@@]4(C)C(=O)O[C@@H]4O[C@H](CO)[C@@H](O)[C@H](O[C@@H]5O[C@H](CO)[C@@H](O)[C@H](O)[C@H]5O)[C@H]4O[C@@H]4O[C@H](CO)[C@@H](O)[C@H](O)[C@H]4O)[C@@H]2CC[C@]1(O[C@@H]1O[C@H](CO)[C@@H](O)[C@H](O[C@@H]2O[C@H](CO)[C@@H](O)[C@H](O)[C@H]2O)[C@H]1O[C@@H]1O[C@H](CO)[C@@H](O)[C@H](O)[C@H]1O)C3` [RebM, rebaudioside M], the “equilibrium solubility at 0.10%” value ([1]; RebM 0.10% in deionized water) was “soluble”, the “equilibrium solubility at 0.13%” value ([1]; RebM 0.13% in deionized water) was “soluble” and the “equilibrium solubility at 0.20%” value ([1]; RebM 0.20% in deionized water) was “soluble”. For the same compound, the equilibrium solubility ([1]; listed as rebM) was “at least 0.2%”, the equilibrium solubility ([1]; listed as rebaudioside M) was “about 0.2%” and the “instantaneous solubility at 0.10%” value ([3]; RebM 0.10% in deionized water) was “soluble”. The “instantaneous solubility at 0.13%” value ([3]; RebM 0.13% in deionized water) was “soluble”, the instantaneous solubility [3] was “at least 0.13%” and the instantaneous solubility ([3]; listed as rebaudioside M) was “about 0.13%”.
